The values below come from PubChem BioAssay AID330 (DTP/NCI, 2004).

Structures are written as SMILES. Values joined by “and” are separate entries in the source; they are usually repeats but may differ in a detail not shown here. Equal entries are not always repeated. Inconclusive results and toxic doses are left out. Peptide text beside a SMILES is read from it. * marks the point of attachment. Boc = CC(C)(C)OC(=O)*; NHNH2 = NN*

This assay concerns P388 leukemia ip, CD2F1 mice, survival T/C. Kind of assay: NCI In Vivo Anticancer Drug Screen. Data for tumor model P388 Leukemia (intraperitoneal) in CD2F1 (CDF1) mice. The note with it: endpoint: median survival time, higher = longer survival. In outline: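 Mice carrying the transplanted tumor received test compound or vehicle. Survival was recorded in each group, and the value is the treated-group measurement divided by that of the vehicle-treated control group.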

The mark [1] stands for this setting: dose: 50.0 mg/kg/injection, schedule: Q01DX009 (ip), vehicle: saline with Tween-80.
Where [2] appears, read: dose: 100.0 mg/kg/injection, schedule: Q01DX009 (ip), vehicle: saline with Tween-80.
The mark [3] stands for this setting: dose: 200.0 mg/kg/injection, schedule: Q01DX009 (ip), vehicle: saline with Tween-80.
The mark [4] stands for this setting: dose: 60.0 mg/kg/injection, schedule: Q01DX005 (ip), vehicle: saline.
Setting [5] is: dose: 120.0 mg/kg/injection, schedule: Q01DX005 (ip), vehicle: saline.
[6] abbreviates: dose: 240.0 mg/kg/injection, schedule: Q01DX005 (ip), vehicle: saline.
Setting [7] is: dose: 60.0 mg/kg/injection, schedule: Q01DX005 (ip), vehicle: Klucel (hydroxypropylcellulose) (HPC).
Where [8] appears, read: dose: 120.0 mg/kg/injection, schedule: Q01DX005 (ip), vehicle: Klucel (hydroxypropylcellulose) (HPC).

On to `O=C(NO)C1CCCCC1O` (stereo not drawn), for which the T/C is, setting by setting: (dose: 12.5 mg/kg/injection, schedule: Q04DX003 (ip), vehicle: saline) 100 % of control; (dose: 25.0 mg/kg/injection, schedule: Q04DX003 (ip), vehicle: saline) 100 % of control; (dose: 50.0 mg/kg/injection, schedule: Q04DX003 (ip), vehicle: saline) 110 % of control; (dose: 400.0 mg/kg/injection, schedule: Q04DX003 (ip), vehicle: saline) 110 % of control.
Turning to `C[C@]12CCC(=O)N[C@@H]1CC[C@@H]1[C@@H]2CC[C@]2(C)[C@@H](OC(=O)COc3ccc(N(CCCl)CCCl)cc3)CC[C@@H]12`, the T/C by setting is: (dose: 2.5 mg/kg/injection, schedule: Q01DX005 (ip), vehicle: saline with Tween-80) 116 % of control; (dose: 10.0 mg/kg/injection, schedule: Q01DX005 (ip), vehicle: saline with Tween-80) 155 % of control; (dose: 15.0 mg/kg/injection, schedule: Q01DX005 (ip), vehicle: saline with Tween-80) 181 % of control; (dose: 20.0 mg/kg/injection, schedule: Q01DX005 (ip), vehicle: saline with Tween-80) 192 % of control; (dose: 30.0 mg/kg/injection, schedule: Q01DX005 (ip), vehicle: saline with Tween-80) 220 % of control.
Consider `Cc1ccc([P+](CCN2C(=O)c3ccccc3C2=O)(c2ccc(C)cc2)c2ccc(C)cc2)cc1`, for which the T/C by setting is: (dose: 0.39 mg/kg/injection, schedule: Q01DX009 (ip), vehicle: water) 111 % of control; (dose: 0.78 mg/kg/injection, schedule: Q01DX009 (ip), vehicle: water) 121 % of control; (dose: 1.56 mg/kg/injection, schedule: Q01DX009 (ip), vehicle: water) 115 % of control; (dose: 3.13 mg/kg/injection, schedule: Q01DX009 (ip), vehicle: water) 121 % of control.
As for `O=c1[nH]c2ccccc2n1C1CCN(CC(O)C2COc3ccccc3O2)CC1` (stereo not drawn), the T/C under setting [1] is 94 % of control, the T/C under setting [2] is 106 % of control and the T/C under setting [3] is 103 % of control.
With `N=C(N)n1ncc2c1CCCC2=O`, the T/C is, setting by setting: (dose: 60.0 mg/kg/injection, schedule: Q01DX005 (ip), vehicle: saline with Tween-80) 100 % of control; (dose: 120.0 mg/kg/injection, schedule: Q01DX005 (ip), vehicle: saline with Tween-80) 105 % of control; (dose: 240.0 mg/kg/injection, schedule: Q01DX005 (ip), vehicle: saline with Tween-80) 96 % of control.
For `CC[N+]12CC=C(CO)C1C(O)CC2` (stereo not drawn), the T/C was 97 % of control under setting [4], 95 % of control under setting [5] and 106 % of control under setting [6].
Turning to `CCOc1ccc(/C=N/NC(=O)c2ccc(O)c(OC)c2)cc1OC`, the T/C reads like this: under setting [4], 100 % of control; under setting [5], 102 % of control; under setting [6], 95 % of control.
`CC(C)(C)OC(=O)NC(Cc1c[nH]c2ccccc12)C(=O)NC(CS)C(=O)NN` (stereo not drawn) (Boc-Trp-Cys-NHNH2; configuration not given here): the T/C is 90 % of control (dose: 12.5 mg/kg/injection, schedule: Q01DX009 (ip), vehicle: other); 94 % of control (dose: 25.0 mg/kg/injection, schedule: Q01DX009 (ip), vehicle: other); 88 % of control (dose: 50.0 mg/kg/injection, schedule: Q01DX009 (ip), vehicle: other); 98 % of control (dose: 100.0 mg/kg/injection, schedule: Q01DX009 (ip), vehicle: other); 94 % of control (dose: 200.0 mg/kg/injection, schedule: Q01DX009 (ip), vehicle: other).
Turning to `CC(C)=C1[C@@H]2C=C[C@@H]1[C@H]1C(=O)[C@@H]3O[C@]3(CO)C(=O)[C@H]12`, the T/C runs as follows: (dose: 50.0 mg/kg/injection, schedule: Q01DX005 (ip), vehicle: saline with Tween-80) 106 % of control; (dose: 100.0 mg/kg/injection, schedule: Q01DX005 (ip), vehicle: saline with Tween-80) 101 % of control; (dose: 200.0 mg/kg/injection, schedule: Q01DX005 (ip), vehicle: saline with Tween-80) 108 % of control.
`O=C(O)c1ccc2c3c(ncnc13)-c1ccccc1C2=O`: the T/C (dose: 6.25 mg/kg/injection, schedule: Q01DX009 (ip), vehicle: Klucel (hydroxypropylcellulose) (HPC)) is 103 % of control; the T/C (dose: 12.5 mg/kg/injection, schedule: Q01DX009 (ip), vehicle: Klucel (hydroxypropylcellulose) (HPC)) was 111 % of control and 96 % of control; the T/C (dose: 25.0 mg/kg/injection, schedule: Q01DX009 (ip), vehicle: Klucel (hydroxypropylcellulose) (HPC)) was 112 % of control and 96 % of control; the T/C (dose: 50.0 mg/kg/injection, schedule: Q01DX009 (ip), vehicle: Klucel (hydroxypropylcellulose) (HPC)) was 105 % of control and 109 % of control and 111 % of control; the T/C (dose: 100.0 mg/kg/injection, schedule: Q01DX009 (ip), vehicle: Klucel (hydroxypropylcellulose) (HPC)) was 100 % of control; the T/C (dose: 200.0 mg/kg/injection, schedule: Q01DX009 (ip), vehicle: Klucel (hydroxypropylcellulose) (HPC)) is 109 % of control.
Take `CN1C(=O)NC(c2ccc(Cl)cc2)(c2ccc(Cl)cc2)C1=O`: the T/C runs as follows: (dose: 5.0 mg/kg/injection, schedule: Q04DX003 (ip), vehicle: other) 105 % of control; (dose: 10.0 mg/kg/injection, schedule: Q04DX003 (ip), vehicle: other) 104 % of control; (dose: 20.0 mg/kg/injection, schedule: Q04DX003 (ip), vehicle: other) 107 % of control; (dose: 25.0 mg/kg/injection, schedule: Q04DX003 (ip), vehicle: other) 101 % of control; (dose: 40.0 mg/kg/injection, schedule: Q04DX003 (ip), vehicle: other) 118 % of control; (dose: 50.0 mg/kg/injection, schedule: Q04DX003 (ip), vehicle: other) 119 % of control.
Turning to `CC(C)(N)CNc1ccccc1`, the T/C is 111 % of control (dose: 25.0 mg/kg/injection, schedule: Q01DX009 (ip), vehicle: saline); 117 % of control (dose: 50.0 mg/kg/injection, schedule: Q01DX009 (ip), vehicle: saline); 120 % of control (dose: 100.0 mg/kg/injection, schedule: Q01DX009 (ip), vehicle: saline).
`CNc1ccccc1Sc1cnc(N)nc1C`: the T/C was 94 % of control under setting [7]; 91 % of control under setting [8]; 90 % of control (dose: 240.0 mg/kg/injection, schedule: Q01DX005 (ip), vehicle: Klucel (hydroxypropylcellulose) (HPC)).
Turning to `N/C(=C\c1cnc2ccccc2n1)c1ccccc1Cl`, the T/C under setting [7] was 91 % of control and the T/C under setting [8] is 89 % of control.
With `C/C=C(\C)C(=O)OC1C2C(C)=CC(=O)C(O)C2(C)C2C3(O)OCC24C1OC(=O)C(O)C4C(C)C3O` (stereo not drawn), the T/C was 154 % of control (dose: 2.5 mg/kg/injection, schedule: Q01DX005 (ip), vehicle: saline); 175 % of control (dose: 7.5 mg/kg/injection, schedule: Q01DX005 (ip), vehicle: Klucel (hydroxypropylcellulose) (HPC)); 154 % of control (dose: 10.0 mg/kg/injection, schedule: Q01DX005 (ip), vehicle: saline); 180 % of control (dose: 15.0 mg/kg/injection, schedule: Q01DX005 (ip), vehicle: Klucel (hydroxypropylcellulose) (HPC)); 154 % of control (dose: 15.0 mg/kg/injection, schedule: Q01DX005 (ip), vehicle: saline); 189 % of control (dose: 30.0 mg/kg/injection, schedule: Q01DX005 (ip), vehicle: Klucel (hydroxypropylcellulose) (HPC)).
On to `O=C(c1ccccc1)C(c1ccccc1)n1ncc2c1CCOC2` (stereo not drawn), for which the T/C is, setting by setting: (dose: 100.0 mg/kg/injection, schedule: Q04DX003 (ip), vehicle: Klucel (hydroxypropylcellulose) (HPC)) 105 % of control; (dose: 200.0 mg/kg/injection, schedule: Q04DX003 (ip), vehicle: Klucel (hydroxypropylcellulose) (HPC)) 96 % of control; (dose: 400.0 mg/kg/injection, schedule: Q04DX003 (ip), vehicle: Klucel (hydroxypropylcellulose) (HPC)) 108 % of control.
On to `CC1=NN(C(=O)c2ccncc2)C(=O)C1N=Nc1ccc(S(=O)(=O)Nc2ncccn2)cc1` (stereo not drawn), for which the T/C was 95 % of control under setting [1], 91 % of control under setting [2] and 92 % of control under setting [3].
Take `CN(C)c1ccc(C(=C2C=CC(=[N+](C)c3ccccc3)c3ccccc32)c2ccc(N(C)C)cc2)cc1`: the T/C (dose: 1.56 mg/kg/injection, schedule: Q01DX005 (ip), vehicle: saline with Tween-80) was 116 % of control.
With `CC1C(=O)CCC2(C)CCC3C(OC(=O)C3(C)[Se]c3ccccc3)C12` (stereo not drawn), the T/C (dose: 100.0 mg/kg/injection, schedule: Q04DX002 (ip), vehicle: saline with Tween-80) was 97 % of control and the T/C (dose: 200.0 mg/kg/injection, schedule: Q04DX002 (ip), vehicle: saline with Tween-80) was 98 % of control.
